PubChem BioAssay (NCI)
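These data come from cells grown in 96-well plates and exposed to compound for 48 hours at five concentrations. Here, GI50 denotes the concentration required for 50% inhibition of growth. TGI is the concentration that stops growth completely.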

Key:
Test in all cases: inhibition of tumour cell growth, NCI panel, 48 h
A549 NSCLC = tested on: A549 NSCLC
HCT-116 colon = tested on: HCT-116 colon
HT29 colon = tested on: HT29 colon
M14 melanoma = tested on: M14 melanoma
SF-268 CNS = tested on: SF-268 CNS
SK-MEL-5 melanoma = tested on: SK-MEL-5 melanoma
SNB-75 CNS = tested on: SNB-75 CNS
U251 CNS = tested on: U251 CNS
A498 renal = tested on: A498 renal
SF-539 CNS = tested on: SF-539 CNS

Compound	TGI (A549 NSCLC)	TGI (HCT-116 colon)	TGI (HT29 colon)	TGI (M14 melanoma)	TGI (SF-268 CNS)	TGI (SK-MEL-5 melanoma)	TGI (SNB-75 CNS)	TGI (U251 CNS)	TGI (A498 renal)	TGI (SF-539 CNS)	GI50 (A498 renal)	GI50 (A549 NSCLC)	GI50 (HCT-116 colon)	GI50 (M14 melanoma)	GI50 (SF-268 CNS)	GI50 (SF-539 CNS)	GI50 (SK-MEL-5 melanoma)	GI50 (SNB-75 CNS)	GI50 (U251 CNS)	GI50 (HT29 colon)
CCCCCCC(=O)C/C(=N/NC(N)=S)C(=O)NC1C2CC3CC(C2)CC1C3 (stereo unspecified)	> 100 µM	> 100 µM	> 100 µM	> 100 µM	> 100 µM	> 100 µM	> 100 µM	> 100 µM	–	–	–	–	–	–	–	–	–	–	–	–
CC(C)c1cc2c(O)c(c1)Cc1cc(C(C)C)cc(c1O)Cc1cc(C(C)C)cc(c1O)Cc1cc(C(C)C)cc(c1O)C2	> 100 µM	> 100 µM	> 100 µM	–	> 100 µM	> 100 µM	> 100 µM	> 100 µM	> 100 µM	> 100 µM	–	–	–	–	–	–	–	–	–	–
CNc1nc(N)c(N=O)c(Nc2ccc(Br)cc2)n1	> 100 µM	> 100 µM	> 100 µM	–	> 100 µM	> 100 µM	> 100 µM	> 100 µM	–	> 100 µM	–	–	–	–	–	–	–	–	–	–
C=C1CC[C@@H]2[C@](C)(COC(C)=O)[C@H](OC(C)=O)CC[C@@]2(C)[C@@H]1CC(Nc1ccc(S(=O)(=O)Nc2ncccn2)cc1)C1=CCOC1=O (stereo partly specified)	9.97 µM	2.49 µM	–	3.98 µM	4.16 µM	3.85 µM	3.23 µM	3.28 µM	24.7 µM	2.94 µM	12.3 µM	3.18 µM	0.879 µM	1.44 µM	1.93 µM	1.5 µM	1.9 µM	1.27 µM	1.74 µM	–
CC(C)CCCC(=O)CCCCCCC(=O)CCN(O)C(=O)C(N)CO (stereo unspecified)	–	38 µM	43.5 µM	61.5 µM	60 µM	43.7 µM	31.1 µM	65 µM	31.8 µM	37.4 µM	–	–	–	–	–	–	–	–	–	–
CCC(=O)c1c(C(F)(F)F)n([O-])c2ccc(C)cc2[n+]1=O	> 50 µM	> 50 µM	> 50 µM	> 50 µM	> 50 µM	13.9 µM	> 50 µM	> 50 µM	–	25.3 µM	–	11.3 µM	13.8 µM	15.3 µM	> 50 µM	9.19 µM	4.33 µM	15.9 µM	10.7 µM	14.1 µM
COc1ccc(/C=C\c2cc(OC)c(OC)c(OC)c2)cc1OC(=O)NCCN(C)C	> 41.3 µM	–	19.9 µM	> 35 µM	–	0.0474 µM	32.8 µM	–	0.0303 µM	0.00328 µM	–	< 0.028 µM	–	–	0.0336 µM	–	–	–	–	0.348 µM
COc1ccc(/C(Cl)=C(\C=O)c2ccc([N+](=O)[O-])cc2)cc1	66.6 µM	–	29.9 µM	> 74.6 µM	92.3 µM	39.9 µM	30.9 µM	19.4 µM	74.1 µM	32.2 µM	–	–	–	–	–	–	–	–	–	–
CC(C)c1ccc(C(c2ccc(OCC(=O)O)cc2)c2ccc(C(C)C)cc(=O)c2O)c(O)c(=O)c1	21.3 µM	14.1 µM	> 100 µM	11 µM	–	9.14 µM	16.2 µM	24.9 µM	69.5 µM	31.3 µM	–	–	–	–	–	–	–	–	–	–
N.N.O=C([O-])P(=O)([O-])[O-].[Na+].[Pt+4]	> 100 µM	> 100 µM	–	> 100 µM	> 100 µM	> 100 µM	> 100 µM	> 100 µM	> 100 µM	> 100 µM	> 100 µM	> 100 µM	> 100 µM	> 100 µM	> 100 µM	> 100 µM	> 100 µM	> 100 µM	> 100 µM	–
CCOC(=O)CCn1[nH]c(=O)c(Cl)c(Cl)c1=O	> 100 µM	> 100 µM	> 100 µM	> 100 µM	> 100 µM	> 100 µM	> 100 µM	> 100 µM	> 100 µM	–	–	–	–	–	–	–	–	–	–	–
CCc1ccc(Nc2ccc([N+](=O)[O-])cc2[N+](=O)[O-])cc1	> 100 µM	> 100 µM	> 100 µM	> 100 µM	–	> 100 µM	> 100 µM	> 100 µM	66.9 µM	> 100 µM	–	–	–	–	–	–	–	–	–	–
COc1ccc2c3c(coc13)C(CCC(=O)O)CC2 (stereo unspecified)	> 100 µM	> 100 µM	> 100 µM	> 100 µM	–	> 100 µM	> 100 µM	> 100 µM	> 100 µM	> 100 µM	–	–	–	–	–	–	–	–	–	–
COc1cc2c(c(OC)c1)C1(CC(CC#N)C2)SCCS1 (stereo unspecified)	> 100 µM	> 100 µM	–	> 100 µM	> 100 µM	> 100 µM	> 100 µM	> 100 µM	> 100 µM	> 100 µM	–	–	–	–	–	–	–	–	–	–
COC1=CC2(C=CC1=O)c1cc(OC)c(OC)cc1CCN2C(=O)c1ccccc1 (stereo unspecified)	> 100 µM	> 100 µM	> 100 µM	> 100 µM	–	> 100 µM	> 100 µM	> 100 µM	> 100 µM	> 100 µM	–	–	–	–	–	–	–	–	–	–
COC(C(O)c1ccc2c(c1)OCO2)P(=O)(c1ccccc1)c1ccccc1 (stereo unspecified)	–	> 100 µM	> 100 µM	> 100 µM	> 100 µM	> 100 µM	> 100 µM	> 100 µM	> 100 µM	> 100 µM	–	–	–	–	–	–	–	–	–	–
C/C=C(\C)CC/C=C/CO[Si](C)(C)C(C)(C)C	> 100 µM	> 100 µM	> 100 µM	> 100 µM	> 100 µM	> 100 µM	> 100 µM	–	> 100 µM	> 100 µM	–	–	–	–	–	–	–	–	–	–
Cc1ccc(-c2cc(=O)c3cc(C)c(C)c(C(=O)O)c3o2)cc1C	> 100 µM	> 100 µM	> 100 µM	> 100 µM	–	> 100 µM	> 100 µM	> 100 µM	–	> 100 µM	–	–	–	–	–	–	–	–	–	–
CC[CH2][Sn]([Cl])([Cl])[CH2]CC.Oc1ccccc1C=NCCN=Cc1ccccc1O	41 µM	16.3 µM	–	19.3 µM	15.5 µM	17.5 µM	16.1 µM	12.5 µM	6.03 µM	24.2 µM	2.22 µM	19.2 µM	4.89 µM	5.49 µM	3.63 µM	10.5 µM	4.87 µM	3.34 µM	3.11 µM	–
Fc1ccc(C2SCc3nc4ccccc4n32)cc1Cl (stereo unspecified)	> 100 µM	–	> 100 µM	–	> 100 µM	–	–	44.6 µM	> 100 µM	43.8 µM	–	–	–	–	–	–	–	–	–	–
